Measured values as given in PubChem BioAssay (NCI).
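Growth conditions: 96-well plates. Treatment: test compound, 48 hours, 5 concentrations. Analysis: linear interpolation between bracketing concentrations; unreached endpoints set to highest concentration. GI50: concentration for 50% inhibition of growth. At the TGI there is no net growth.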

How the values were obtained:
Test in all cases: NCI tumour cell line growth inhibition, 48 h
[1] = test system: NCI-H23 lung
[2] = test system: NCI-H460 lung
[3] = test system: NCI-H522 lung
[4] = test system: NCI/ADR-RES ovarian
[5] = test system: OVCAR-3 ovarian
[6] = test system: OVCAR-4 ovarian
[7] = test system: OVCAR-5 ovarian
[8] = test system: OVCAR-8 ovarian
[9] = test system: PC-3 prostate
[10] = test system: RPMI-8226 leukemia
[11] = test system: RXF 393 renal
[12] = test system: SF-268 CNS
[13] = test system: SF-295 CNS
[14] = test system: SF-539 CNS
[15] = test system: SK-MEL-2 melanoma
[16] = test system: SK-MEL-28 melanoma
[17] = test system: SK-MEL-5 melanoma
[18] = test system: SK-OV-3 ovarian
[19] = test system: SN12C renal
[20] = test system: SNB-19 CNS
[21] = test system: SNB-75 CNS
[22] = test system: SR leukemia
[23] = test system: SW-620 colon
[24] = test system: T-47D breast
[25] = test system: TK-10 renal
[26] = test system: U251 CNS
[27] = test system: UACC-257 melanoma
[28] = test system: UACC-62 melanoma
[29] = test system: UO-31 renal

CCOC(=O)Nc1nc2cc(OC)c(OC)c(OC)c2s1
TGI [1]: > 100 µM | GI50 [2]: > 100 µM | TGI [2]: > 100 µM | GI50 [3]: > 100 µM | TGI [3]: > 100 µM | GI50 [4]: > 100 µM | TGI [4]: > 100 µM | GI50 [5]: 51.5 µM | TGI [5]: > 100 µM | GI50 [6]: > 100 µM | TGI [6]: > 100 µM | GI50 [7]: > 100 µM | TGI [7]: > 100 µM | GI50 [8]: > 100 µM | TGI [8]: > 100 µM | GI50 [9]: > 100 µM | TGI [9]: > 100 µM | GI50 [10]: > 100 µM | TGI [10]: > 100 µM | GI50 [11]: 49.4 µM | TGI [11]: > 100 µM | GI50 [12]: 50.4 µM | TGI [12]: > 100 µM | GI50 [13]: 41.4 µM | TGI [13]: > 100 µM | GI50 [14]: > 100 µM | TGI [14]: > 100 µM | GI50 [15]: 62.6 µM | TGI [15]: > 100 µM | GI50 [16]: > 100 µM | TGI [16]: > 100 µM | GI50 [17]: > 100 µM | TGI [17]: > 100 µM | GI50 [18]: 66.5 µM | TGI [18]: > 100 µM | GI50 [19]: > 100 µM | TGI [19]: > 100 µM | GI50 [20]: > 100 µM | TGI [20]: > 100 µM | GI50 [21]: 16.9 µM | TGI [21]: 64.6 µM | GI50 [22]: > 100 µM | TGI [22]: > 100 µM | GI50 [23]: > 100 µM | TGI [23]: > 100 µM | GI50 [24]: > 100 µM | TGI [24]: > 100 µM | GI50 [25]: 42.4 µM | TGI [25]: > 100 µM | GI50 [26]: 38.7 µM | TGI [26]: > 100 µM | GI50 [27]: > 100 µM | TGI [27]: > 100 µM | GI50 [28]: > 100 µM | TGI [28]: > 100 µM | GI50 [29]: 13.9 µM | TGI [29]: > 100 µM
